Data published in ChEMBL document CHEMBL1799912, “Benzodihydrofurans from Cyperus teneriffae” (J Nat Prod, 2011).
Calls of active or inactive are those of the source. No cut-off for these calls is given here.

assay: Antiestrogenic activity in human MCF7/BUS cells assessed as inhibition of 17beta-estradiol-induced cell proliferation at 10 uM after 6 days by E-Screen test; type: functional, cell-based

Compound | Activity
COc1cc(OC)c2c(c1)O/C(=C\c1ccc(OC)c(OC)c1)C2=O | inactive
C=C(C)[C@@H]1Cc2c(c(OC)c(O)c(C(C)=O)c2OC)O1 | inactive
O=C1CC(c2ccc(O)c(O)c2)Oc2cc(O)cc(O)c21 (configuration not stated) | inactive
COc1cc(OC)c2c(c1)O/C(=C\c1ccc(OC)c(O)c1)C2=O | inactive
COc1ccc(-c2oc3cc(O)cc(O)c3c(=O)c2O)cc1O | inactive
COc1cc(O)c(CC=C(C)C)c(O)c1C(C)=O | inactive
C=C(C)[C@@H]1Cc2c(c(OC)c3occ(C)c3c2OC)O1 | inactive
